{"source": "patent US12390505B2", "about": "“Composition for preventing or treating obesity or diabetes, comprising acanthopanax senticosus extract and garcinia cambogia extract or compound isolated therefrom” (KOREA RESEARCH INSTITUTE OF BIOSCIENCE AND BIOTECHNOLOGY, priority 2020, dated 2025)", "format_in_all_cases": "in vivo, mouse", "key": {"[1]": {"assay": "Example 11 HFD mice: weight change, dietary efficiency and organ weight", "settings": "oral once daily 10 weeks, 50 mg/kg", "procedure": "(§1) After adapting 8-week-old male C57b1/6 J mice to the basic diet (AIN-76A diet) for 2 weeks, and consuming Diet Induced Obesity Diet Formulas (D12451) 60 kcal % HFD diet for 2 weeks from 10 weeks of age, and then the test drug was administered when the average body weight reached 28 g or more. The animal breeding room environment of the mouse was maintained in a constant temperature (25±2° C.), constant humidity (50±5%) and a 12-hour photoperiod (light on 07:00˜19:00) in which the light and shade were controlled in an SPF environment. […] The test drug was dispersed in 0.5% Carboxymethyl cellulose (CMC) and administered in a volume of 0.2 ml, and the drug was administered orally by force into the stomach using a metal Zonde for oral administration.\nBody weight and food intake were measured and recorded at regular times every week. Total weight gain: weight at the end of the experiment−weight at the start of the experiment (1) Food intake=[…] (2) Food efficiency ratio (FER)=[total weight gain/total food intake]×100 (3)\n(§2) The data were analyzed using one-way ANOVA to determine a statistically significant variance between each group for each final point measured, and statistical significance between each group was determined using the nonparametric Mann-Whitney test and Dunnett's multiple comparison test (IBM SPSS statistics version 19.0 statistic software, Inc, IBM, USA)."}, "[2]": {"assay": "Example 11 HFD mice: body fat reduction, white adipose tissue weight", "settings": "oral once daily 10 weeks, 50 mg/kg", "procedure": "as §1\nAfter removing retroperitoneal white adipose tissue and intestines white adipose tissue of each experimental animal, the weight of adipose tissue was calculated.\nas §2, with “Results obtained from various experiments are recorded as mean±standard error of mean (SEM), and significance verification is determined using the student's T-test analysis method. The” for “The”"}, "[3]": {"assay": "Example 11 HFD mice: oral glucose tolerance test", "settings": "oral once daily 10 weeks, 50 mg/kg", "procedure": "(§3) After adapting 8-week-old male C57b1/6 J mice to the basic diet (AIN-76A diet) for 2 weeks, and consuming Diet Induced Obesity Diet Formulas (D12451) 60 kcal % HFD diet for 2 weeks from 10 weeks of age, and then the test drug was administered when the average body weight reached 28 g or more. The animal breeding room environment of the mouse was maintained in a constant temperature (25±2° C.), constant humidity (50±5%) and a 12-hour photoperiod (light on 07:00˜19:00) in which the light and shade were controlled in an SPF environment. […]\n(§4) […] Blood to be used for blood glucose measurement was collected from the tail vein of a mouse, and blood glucose was measured using a serum analyzer (Accutrend plus GCTL Cobas Roche, Germany).\nas §2, with “Results obtained from various experiments are recorded as mean±standard error of mean (SEM), and significance verification is determined using the student's T-test analysis method. The” for “The”"}, "C/EBP-α mRNA": {"system": "C/EBP-α mRNA", "assay": "Example 11 HFD mice: adipose tissue C/EBP-α mRNA analysis", "settings": "oral once daily 10 weeks, 50 mg/kg", "procedure": "as §3\nRNA was extracted from tissues using RNAsolB (Tel-Test) solution, and cDNA and real-time PCR analysis were performed using One-step SYBR Green PCR kit (AB science). […] Real time quantitative PCR was performed using the Applied Biosystems 7500 Real-Time PCR system (Applied Biosystems, USA).\nas §2, with “Results obtained from various experiments are recorded as mean±standard error of mean (SEM), and significance verification is determined using the student's T-test analysis method. The” for “The”"}, "[4]": {"assay": "Example 12 HFD mice: oral glucose tolerance test", "settings": "oral once daily 10 weeks, 50 mg/kg", "procedure": "as §1, §4\nas §2, with “Results obtained from various experiments are recorded as mean±standard error of mean (SEM), and significance verification is determined using the student's T-test analysis method. The” for “The”"}, "PPAR-gamma mRNA": {"system": "PPAR-gamma mRNA", "assay": "Example 12 HFD mice: adipose tissue PPAR-gamma mRNA analysis", "settings": "adipose tissue of HFD mice, oral once daily for 10 weeks, chiisanogenin 50 mg/kg, Garcinia cambogia extract 200 mg/kg, combination 50 + 150 mg/kg, Met 50 mg/kg", "procedure": "The test drug was dispersed in 0.5% Carboxymethyl cellulose (CMC) and administered in a volume of 0.2 ml, and the drug was administered orally by force into the stomach using a metal Zonde for oral administration. RNA was extracted from tissues using RNAsolB (Tel-Test) solution, and cDNA and real-time PCR analysis were performed using One-step SYBR Green PCR kit (AB science). From the prepared cDNA, a FAM probe of [NT] ID NO: 16) sequence was used to amplify PPAR-gamma mRNA, and a VIC probe of [NT] ID NO: 15) sequence was used to amplify GAPDH mRNA as an intra control. Real time quantitative PCR was performed using the Applied Biosystems 7500 Real-Time PCR system (Applied Biosystems, USA). Results obtained from various experiments are recorded as mean±standard error of mean (SEM), and significance verification is determined using the student's T-test analysis method. The data were analyzed using one-way ANOVA to determine a statistically significant variance between each group for each final point measured, and statistical significance between each group was determined using the nonparametric Mann-Whitney test and Dunnett's multiple comparison test (IBM SPSS statistics version 19.0 statistic software, Inc, IBM, USA)."}}, "data": [{"molecule": "CN(C)C(=N)N=C(N)N", "note": "[Met, Metformin]", "values": [{"measurement": "Final weight", "setting": "[1]", "result": "38.6 ± 0.93", "unit": "g"}, {"measurement": "Food intakes", "setting": "[1]", "result": 2.24, "unit": "g/day"}, {"measurement": "Inhibition Rate (FER)", "setting": "[1]", "result": 41, "unit": "%"}, {"measurement": "Inhibition Rate (final weight)", "setting": "[1]", "result": 43, "unit": "%"}, {"measurement": "Inhibition Rate (weight gain)", "setting": "[1]", "result": 51, "unit": "%"}, {"measurement": "Kidney weight", "setting": "[1]", "result": "0.31 ± 0.01", "unit": "g"}, {"measurement": "Spleen weight", "setting": "[1]", "result": "0.10 ± 0.00", "unit": "g"}, {"measurement": "Weight gain", "setting": "[1]", "result": "15.3 ± 0.82", "unit": "g"}, {"measurement": "Inhibition Rate (intestines WAT)", "setting": "[2]", "result": 46, "unit": "%"}, {"measurement": "Inhibition Rate (retroperitoneal white adipose tissue)", "setting": "[2]", "result": 12, "unit": "%"}, {"measurement": "Intestines WAT", "setting": "[2]", "result": "0.55 ± 0.05", "unit": "g"}, {"measurement": "Retroperitoneal white adipose tissue", "setting": "[2]", "result": "0.89 ± 0.06", "unit": "g"}, {"measurement": "Inhibition Rate (OGTT)", "setting": "[3]", "result": 23, "unit": "%"}, {"measurement": "OGTT (30 min-0 min, mg/dL)", "setting": "[3]; glucose 1 g/kg", "result": "148 ± 18.50^ mg/dL"}, {"measurement": "Inhibition Rate (C/EBP-α mRNA)", "setting": "C/EBP-α mRNA", "result": 75, "unit": "%"}, {"measurement": "C/EBP-α mRNA expression in adipose tissue", "setting": "C/EBP-α mRNA; GAPDH control", "result": "1.153 ± 0.320"}, {"measurement": "Inhibition Rate (OGTT)", "setting": "[4]", "result": 23, "unit": "%"}, {"measurement": "OGTT (30 min-0 min, mg/dL)", "setting": "[4]; glucose 1 g/kg", "result": "148.0 ± 18.50^ mg/dL"}, {"measurement": "PPAR-γ mRNA Inhibition Rate (%)", "setting": "PPAR-gamma mRNA", "result": 80, "unit": "%"}, {"measurement": "PPAR-γ mRNA, mean ± standard error", "setting": "PPAR-gamma mRNA; real-time PCR vs GAPDH", "result": "1.235 ± 0.42"}]}]}
